Experimental data reported in ChEMBL document CHEMBL3826919, “The discovery of novel and selective fatty acid binding protein 4 inhibitors by virtual screening and biological evaluation” (Bioorg Med Chem, 2016).

Tests used:
[1] = molecular target: T1, Fatty acid-binding protein, adipocyte (Mus musculus) (UniProt P04117); assay: Inhibition of FABP4 in mouse RAW264.7 cells assessed as inhibition of LPS-induced TNFalpha production after 24 hrs by ELISA; assay type: cell-based
T1 sequence (whole entry): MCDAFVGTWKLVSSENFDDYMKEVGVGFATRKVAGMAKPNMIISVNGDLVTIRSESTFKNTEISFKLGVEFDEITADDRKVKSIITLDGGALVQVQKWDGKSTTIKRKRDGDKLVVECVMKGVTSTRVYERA

[2] = molecular target: T2, Fatty acid-binding protein, adipocyte (Homo sapiens, UniProt P15090); assay: Binding affinity to His6-tagged FABP4 (unknown origin) expressed in Escherichia coli BL21(DE3) cells assessed as change in melting temperature at 50 uM after 30 mins by SYPRO orange dye based thermal stability shift assay
Target sequence in this assay (P15090 2-132 limits assumed): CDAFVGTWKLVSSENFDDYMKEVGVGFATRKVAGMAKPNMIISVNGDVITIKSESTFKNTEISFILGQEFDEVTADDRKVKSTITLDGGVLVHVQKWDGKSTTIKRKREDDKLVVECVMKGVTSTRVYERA

[3] = molecular target: T1, Fatty acid-binding protein, adipocyte (Mus musculus); assay: Inhibition of FABP4 in mouse RAW264.7 cells assessed as inhibition of LPS-induced IL-6 expression after 24 hrs by qPCR method; assay type: cell-based
[4] = molecular target: T1, Fatty acid-binding protein, adipocyte (Mus musculus); assay: Inhibition of FABP4 in mouse RAW264.7 cells assessed as inhibition of LPS-induced TNFalpha expression after 24 hrs by qPCR method; assay type: cell-based
[5] = molecular target: T2, Fatty acid-binding protein, adipocyte; assay: Displacement of 1,8-ANS from His6-tagged FABP4 (unknown origin) expressed in Escherichia coli BL21(DE3) cells at 25 uM by fluorescence assay relative to control
Target sequence in this assay (P15090 2-132 limits assumed): as above

Homo sapiens [6] = species on record: Homo sapiens; assay: Displacement of 1,8-ANS from His6-tagged FABP4 (unknown origin) R126A mutant expressed in Escherichia coli BL21(DE3) cells at 25 uM by fluorescence assay relative to control
Homo sapiens [7] = species on record: Homo sapiens; assay: Displacement of 1,8-ANS from His6-tagged FABP4 (unknown origin) R106A mutant expressed in Escherichia coli BL21(DE3) cells at 25 uM by fluorescence assay relative to control
[8] = molecular target: T2, Fatty acid-binding protein, adipocyte; assay: Displacement of 1,8-ANS from His6-tagged FABP4 (unknown origin) expressed in Escherichia coli BL21(DE3) cells by fluorescence assay; settings: read-out: Ki(app)
Target sequence in this assay (P15090 whole entry): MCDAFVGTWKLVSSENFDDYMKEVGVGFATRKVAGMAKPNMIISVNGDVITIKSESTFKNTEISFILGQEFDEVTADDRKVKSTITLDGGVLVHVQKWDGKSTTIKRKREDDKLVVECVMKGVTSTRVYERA

Compound | ΔTm [2] | inhibition [5] | further results
CCc1c(-c2ccccc2)c(-c2ccccc2)nn1-c1ccccc1-c1cccc(OCC(=O)O)c1 | 10.6 °C | – | inhibition [1]: Dose-dependent effect; inhibition [3]: Dose-dependent effect; inhibition [4]: Dose-dependent effect
CCCCCC(=O)N(CN1C(=O)c2ccccc2C1=O)c1cccc(C(=O)O)c1 | -0.2 °C | -1.9% | –
CC(=O)NC(Cc1ccc(O)cc1)C(=O)O (stereo not given) | -0.1 °C | -3.6% | –
COc1ccc(-c2ccc(C#N)c(SCC(=O)NCC(=O)O)n2)cc1 | -0.1 °C | – | –
Cc1[nH]nc2c1C1(C(=O)N(C(C)C(=O)O)c3ccccc31)C(C#N)=C(N)O2 (stereo not given) | 0.1 °C | 6% | –
O=C(O)CCSc1nc2ccccc2n1Cc1ccccc1 | 2.8 °C | 27.9% | –
CCCCCCCC/C=C\CCCCCCCC(=O)O | 3.3 °C | 82.1% | inhibition (Homo sapiens [6]): 48.8%; inhibition (Homo sapiens [7]): 69.4%
Cc1cc(=O)n2c3c(cc(S(=O)(=O)NCc4ccc(C(=O)O)cc4)cc13)CC2 | 0.8 °C | – | –
Cc1nc(=O)c(-c2ccccc2)c(C)n1CCCCCC(=O)O | 0 °C | -3.2% | –
CCCCCCCn1c(SCC(=O)O)nc2c1c(=O)[nH]c(=O)n2C | 2 °C | 13% | –
COc1ccc(Cc2c(C)[nH]c3ccc(C(=O)O)cc23)cc1 | 1.2 °C | – | –
CCCCC/C=C\C/C=C\CCCCCCCC(=O)O | 1.1 °C | – | –
CCOc1cc(/C=C2/SC(=S)N(CCC(=O)O)C2=O)ccc1O | -1.8 °C | 63.2% | Ki [8]: 2500 nM
Cc1ccc(/N=C2/NC(=O)/C(=C/c3cccn3-c3cccc(C(=O)O)c3)S2)cc1C | -9 °C | 36.8% | Ki [8]: 3600 nM
O=C(O)c1cccc(-c2ccc(CNC(Cc3c[nH]c4ccccc34)C(=O)O)o2)c1 (stereo not given) | -2.4 °C | – | –
COc1ccccc1-c1cc(C(F)(F)F)nc(S(=O)(=O)CCCC(=O)O)n1 | -9.1 °C | – | –
Cc1ccc(C(=O)C2=C(O)C(=O)N(CCCC(=O)O)C2c2ccccc2F)cc1 (stereo not given) | 0 °C | 17.1% | –
O=C(O)C1CCCCC1C(=O)Nc1ccccc1-c1ccccc1 (stereo not given) | 3.9 °C | 27.7% | –
Cc1ccc(S(=O)(=O)NC(CC(=O)O)c2ccccc2)c(C)c1 (stereo not given) | 0.2 °C | -0.3% | –

Compound | ΔTm [2] | inhibition [5] | further results
O=C(O)C1C2CC=CC2c2cc(Cl)cc3c2N1CC1CC=CC31 (stereo not given) | 7.9 °C | – | Ki [8]: 690 nM
O=C(CSc1ncccc1C(=O)O)c1ccc(O)c(O)c1 | -0.6 °C | -0.2% | –
CN1C(=O)/C(=N/c2cccc(C(=O)O)c2)S/C1=C\c1cccs1 | -0.3 °C | 25.8% | –
O=C(O)COc1ccc(Br)cc1/C=C1\S/C(=N\c2ccc(Cl)cc2)NC1=O | -0.6 °C | – | –
CN(CC(=O)O)c1ncc(-c2nnnn2-c2ccccc2)c(-c2ccccc2Cl)n1 | 0 °C | 0.5% | –
O=C(O)C1C2CC=CC2c2c3c(cc4ccccc24)C2C=CCC2CN31 (stereo not given) | 7.5 °C | – | –
COc1ccc(C2C(C(=O)c3ccc(C)cc3)=C(O)C(=O)N2CCCC(=O)O)cc1OC (stereo not given) | 1 °C | 16.6% | –
O=C(O)CCC(=O)Nc1sc2c(c1C(=O)Nc1cccc3ccccc13)CCCCC2 | 0.2 °C | 0.4% | –
O=C(O)CSc1cc(NS(=O)(=O)c2ccc(Cl)cc2)c2ccccc2c1O | -2.8 °C | 70% | Ki [8]: 2300 nM
CCOC(=O)c1cnc2c(ccc3ccccc32)c1Nc1cccc(C(=O)O)c1 | 0.2 °C | 18.2% | –
CCc1ccccc1NC(=O)C(OC(=O)c1ccccc1)C(OC(=O)c1ccccc1)C(=O)O (stereo not given) | 0.5 °C | 2.1% | –
CC(Sc1nc(-c2ccccc2)c(-c2ccccc2)[nH]1)C(=O)O (stereo not given) | 3.1 °C | – | –
O=C(Nc1cc(Cl)ccc1Cl)/C(=N\Nc1ccccc1C(=O)O)C(=O)c1ccccc1 | 0.3 °C | 39.5% | Ki [8]: 10300 nM
COc1ccc(CN(C(=O)COc2cc(C)ccc2C(C)C)c2ccccc2C(=O)O)cc1 | 0.1 °C | 18.5% | –
COc1cccc(-c2[nH]c3ccccc3c2C2c3ccccc3C(=O)N2CCC(=O)O)c1 (stereo not given) | 1.1 °C | 6.3% | –
Cc1oc2c(cc(NS(=O)(=O)c3ccc(Cl)cc3)c3ccccc32)c1C(=O)O | 2.8 °C | 30.2% | –
O=C(O)c1cccc2c1NC(c1ccccc1[N+](=O)[O-])C1CC(Sc3ccccc3[N+](=O)[O-])C(Cl)C21 (stereo not given) | -0.2 °C | 41.5% | Ki [8]: 5400 nM
C=C1C(N(CCc2ccc(OC)cc2)C(=O)CCC(=O)O)CC(=O)N1c1ccccc1 (stereo not given) | -0.1 °C | 1% | –
O=c1cc(O)c2c(=O)n(N(c3ccccc3)c3ccccc3)c3c(c2o1)CCCC3 | 0.3 °C | 0.9% | –

Compound | ΔTm [2] | inhibition [5] | further results
O=C(O)CC(Sc1nc2sc3c(c2c(=O)[nH]1)CCCC3)C(=O)O (stereo not given) | 0.1 °C | – | –
O=C(O)C1C2CC(Sc3ccccc3[N+](=O)[O-])C(Cl)C2c2cccc3c2N1CC1CC=CC31 (stereo not given) | 3.5 °C | 60.2% | Ki [8]: 3100 nM
Cc1ccc(C)c(NC(=O)C2CCC(C)(C(=O)O)C2(C)C)c1 (stereo not given) | 0.1 °C | 0.5% | –
COc1ccc(S(=O)(=O)Nc2ccccc2C(=O)O)c2ccccc12 | 1.2 °C | 20.3% | –
Cc1cc2c3c(c1)C1C=CCC1C(C(=O)O)N3CC1CC=CC21 (stereo not given) | 6.2 °C | – | inhibition [1]: Dose-dependent effect; Ki [8]: 380 nM; inhibition [3]: Dose-dependent effect; inhibition [4]: Dose-dependent effect
Cc1ccc(C(C[N+](=O)[O-])c2c(-c3ccccc3C)n[nH]c2O)cc1 (stereo not given) | -3.7 °C | 5.8% | –
O=C(O)CC/C(=N/NC(=O)c1c[nH]c2ccccc12)c1ccccc1 | -0.8 °C | -0.8% | –
Cc1ccc(-n2c(SCC(=O)Nc3c(C)cccc3C)nc(O)cc2=O)cc1 | 0 °C | -3% | –
CCCN1C2=C(C(=O)CC(C)(C)C2)C(c2cc(Cl)ccc2OCC(=O)O)C2=C1CC(C)(C)CC2=O | -0.2 °C | – | –
O=C(O)c1ccc(S(=O)(=O)Nc2ccc(O)c(Sc3nc4ccccc4s3)c2)cc1 | 0.1 °C | 7.2% | –
Cc1ccc(C(=O)/C(=C\Nc2cc(Cl)ccc2C(=O)O)c2nnnn2-c2ccc(C)cc2)cc1 | -2.6 °C | -2.5% | –
Cc1cc(C)c2c3c1C1C=CCC1CN3C(C(=O)O)C1CC=CC21 (stereo not given) | 5.8 °C | – | Ki [8]: 610 nM
O=C(O)CCC(=O)Nc1ccccc1C(=O)N1CCCCCC1 | -0.1 °C | 3.4% | –
Cc1oc2ccc(NS(=O)(=O)c3ccccc3)cc2c1C(=O)O | 0.2 °C | 9.5% | –
O=C(O)c1ccccc1C(=O)N(Cc1ccccc1)Cc1ccccc1 | 1 °C | 4.9% | –
CCCOc1cc(S(=O)(=O)Nc2ccc(C(=O)O)cc2)ccc1Cl | 0.1 °C | 31.4% | Ki [8]: 4300 nM
COc1ccccc1N1CCN(C(=O)c2ccccc2NC(=O)C2CCCCC2C(=O)O)CC1 (stereo not given) | 0.1 °C | -5% | –
O=C(O)C(Cc1ccc(O)cc1)N1C(=O)c2c(Cl)c(Cl)c(Cl)c(Cl)c2C1=O (stereo not given) | 0.5 °C | 6% | –
